Results on eight compounds are retold here after patent publication US8143259B2, “Cold menthol receptor antagonists” (Janssen Pharmaceutica, NV, priority 2008, dated 2012).

One assay has as its target T1, canine TRPM8 (Canis lupus familiaris, UniProt Q1A7N1).
T1 construct: expressed in transfected cells
Nature of the assay: In Vitro Canine TRPM8 Functional Assay (Ca2+ fluorescence, icilin activation). Format: cell-based. As to conditions: for inhibition at 0.5 µM: HEK293, 0.5 μM compound; for IC50: HEK293 cells stably expressing canine TRPM8, icilin activation, Ca2+ fluorescence; for % Inh @ 0.5 μM: 0.5 μM compound; for inhibition at 0.2 µM: HEK293, 0.2 μM compound. Summed up: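 Antagonism read as inhibition of the intracellular Ca2+ rise evoked by icilin (~EC80), measured by FLIPR or FDSS. Stable canine TRPM8 HEK293 line, Calcium 3 dye; 5 min compound preincubation. Normalised, basal-corrected peak fluorescence from quadruplicates fitted to sigmoidal curves.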

For assay [1], the system named is icilin-induced “wet-dog” shakes. Nature of the assay: Reversal of Icilin-Induced Behaviors in Rats. Format: in vivo. As to conditions: percent inhibition (reversal) of wet-dog shakes, rat, 30 mg/kg P.O., 20′ post-icilin. As to the method:
(§1) Similar shaking or jumping behavior was also evident in mice, rabbits, cats, dogs and monkeys. In humans, icilin produced a sensation of coolness on contact with mucous membranes, cold prickling when 0.1 mg was dropped on the tongue and coldness in the mouth, pharynx and chest lasting 30-60 minutes when 5-10 mg was ingested orally (Wei E T, Seid D A, J Pharm Pharmacol. 1983, 35, 110). The inhibition or reversal of icilin-induced shaking behaviors in rodents provides evidence for the utility of TRPM8 antagonists of the formula (I) in treating or preventing a disease, syndrome, disorder or condition in a subject in which the disease, syndrome, disorder or condition is affected by the modulation of TRPM8 receptors.
Male Sprague Dawley rats (225-450 g, Charles River Labs, n=4-6/treatment) were used to evaluate the ability of selected compounds of the formula (I) to reverse icilin-induced “wet-dog” shakes. Icilin was administered in PEG-400 or 10% solutol/H2O, at 1.0 or 3.0 mg/kg, i.p. and spontaneous “wet-dog” shakes (WDS) were counted 10-20 minutes post-icilin. […] Results are presented as a percent inhibition of shakes, which was calculated as [1−(test compound WDS count/vehicle WDS count)]×100.

Assay [2] shares this test system. Kind of assay: Inhibition of Icilin-Induced “Wet-Dog” Shakes in Rats. The format is in vivo. To be noted: percent inhibition of wet-dog shakes; rat; 30 mg/kg p.o., 10% solutol, 2 h pre-icilin. As to the method: as §1
Male Sprague Dawley rats ([…], Charles River Labs, n=6-9/treatment) were used to evaluate the ability of selected compounds of the formula (I) to block icilin-induced “wet-dog” shakes (WDS). […] Icilin was administered in PEG-400 or 10% solutol/H2O, at 1.0 or 3.0 mg/kg, i.p. and spontaneous “wet-dog” shakes were counted 10-20 minutes post-icilin. Results are presented as a percent inhibition of shakes, which was calculated as [1−(test compound WDS count/vehicle WDS count)]×100.

Structures are written as SMILES. Where “and” joins values, the source holds several entries; their conditions need not be identical. Identical values can stand only once.

T1 sequence (Q1A7N1 1-1104): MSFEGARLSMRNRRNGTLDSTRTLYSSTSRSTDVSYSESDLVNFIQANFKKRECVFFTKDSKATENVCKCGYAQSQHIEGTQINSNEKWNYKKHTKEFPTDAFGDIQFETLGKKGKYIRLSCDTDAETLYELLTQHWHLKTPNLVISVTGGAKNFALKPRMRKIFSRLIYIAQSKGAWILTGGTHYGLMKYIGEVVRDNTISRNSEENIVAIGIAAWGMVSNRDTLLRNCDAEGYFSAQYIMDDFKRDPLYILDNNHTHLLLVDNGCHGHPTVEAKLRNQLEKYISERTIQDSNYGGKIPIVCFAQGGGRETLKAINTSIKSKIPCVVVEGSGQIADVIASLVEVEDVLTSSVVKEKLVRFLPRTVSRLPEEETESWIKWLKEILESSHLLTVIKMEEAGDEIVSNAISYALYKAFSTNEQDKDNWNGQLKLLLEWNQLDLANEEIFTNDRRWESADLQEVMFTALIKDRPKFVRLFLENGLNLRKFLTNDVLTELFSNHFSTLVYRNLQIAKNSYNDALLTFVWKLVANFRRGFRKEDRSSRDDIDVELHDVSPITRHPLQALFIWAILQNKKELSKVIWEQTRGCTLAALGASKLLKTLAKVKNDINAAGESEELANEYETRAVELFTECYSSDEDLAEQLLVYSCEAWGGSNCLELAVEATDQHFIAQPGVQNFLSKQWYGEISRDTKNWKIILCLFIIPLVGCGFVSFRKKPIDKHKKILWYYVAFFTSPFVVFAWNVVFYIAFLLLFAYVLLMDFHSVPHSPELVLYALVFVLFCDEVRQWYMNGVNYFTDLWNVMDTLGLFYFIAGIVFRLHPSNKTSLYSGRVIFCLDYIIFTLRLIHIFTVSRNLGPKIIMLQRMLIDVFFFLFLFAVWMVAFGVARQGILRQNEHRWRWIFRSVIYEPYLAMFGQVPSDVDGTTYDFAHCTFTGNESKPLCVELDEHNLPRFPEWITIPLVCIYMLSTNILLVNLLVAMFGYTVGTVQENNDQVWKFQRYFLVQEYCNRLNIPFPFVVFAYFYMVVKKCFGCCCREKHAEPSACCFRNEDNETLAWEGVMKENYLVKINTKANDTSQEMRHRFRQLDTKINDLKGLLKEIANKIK

Regarding `O=C(C(Nc1ccccc1F)c1ccc(C(F)(F)F)cc1)N1CCCC1c1ccccc1` (single isomer, unassigned) [Cpd 128], the inhibition (commonly the change of the read-out against control, counted positive when it falls) at 0.5 µM on canine TRPM8 (canine TRPM8 HEK293, icilin) is 100%. In addition, the IC50 (as a rule, the concentration at which inhibition is half-maximal) against canine TRPM8 was 4.6 nM. Further, the “% Inh” value in assay [1] (30 mg/kg) was 56% ± 19%.

Consider `O=C(C(Nc1ccccc1F)c1ccc(C(F)(F)F)cc1)N1CCCC1c1ccccc1` (single isomer, unassigned) [Cpd 129], for which the “% Inh @ 0.5 μM” value at canine TRPM8 (canine TRPM8 HEK293, icilin) is recorded as 101%. The midpoint of inhibition against canine TRPM8, the IC50, lay at 43 nM. Besides, in assay [1] (30 mg/kg), the “% Inh” value is recorded as 50% ± 21%.

`O=C(C(Nc1ccccc1F)c1ccc(C(F)(F)F)cc1)N1CCCC1c1ccccc1F` (single isomer, unassigned) [Cpd 149]: on canine TRPM8 (canine TRPM8 HEK293, icilin), the inhibition at 0.2 µM was 83% and the inhibition at 0.5 µM was 101%. The IC50 against canine TRPM8 was 45 nM and 74 nM. For the same compound, in assay [1] (30 mg/kg), the “% Inh” value is 61% ± 15%.

Turning to `O=C(C(Nc1ccccc1F)c1ccc(C(F)(F)F)cc1)N1CCCC1c1ccccc1F` (single isomer, unassigned) [Cpd 151], the “% Inh @ 0.2 μM” value at canine TRPM8 (0.2 μM compound, canine TRPM8 HEK293, icilin, 0.2 µM) is 103%. For the same compound, on canine TRPM8 (canine TRPM8 HEK293, icilin), the “% Inh @ 0.5 μM” value amounted to 100.72%. Further, the IC50 against canine TRPM8 is 7.2 nM and 5 nM. The “% Inh” value in assay [2] is 100%; in assay [1] (30 mg/kg), 99% ± 1%.

In the case of `O=C(C(Nc1ccccc1F)c1ccc(C(F)(F)F)cc1)N1CCCC1c1ccccc1Cl` (single isomer, unassigned) [Cpd 155], the inhibition at 0.5 µM at canine TRPM8 (canine TRPM8 HEK293, icilin) turned out to be 99%. The IC50 at canine TRPM8 is 17 nM. Moreover, in assay [1], the “% Inh” value was 79% ± 13%.

As to `O=C(C(Nc1ccccc1F)c1ccc(Cl)cc1)N1CCCC1c1ccccc1F` (single isomer, unassigned) [Cpd 158], the “% Inh @ 0.5 μM” value on canine TRPM8 (canine TRPM8 HEK293, icilin) amounted to 98%. The compound also returned an IC50 at canine TRPM8 of 5 nM. The “% Inh” value in assay [1] is 86% ± 7%.

For `O=C(C(Nc1ccccc1F)c1ccc(C(F)(F)F)cc1)N1CCCC1c1cccc(F)c1` (stereo not shown) [Cpd 134], the “% Inh @ 0.5 μM” value at canine TRPM8 (canine TRPM8 HEK293, icilin) is listed as 98%. Moreover, the IC50 against canine TRPM8 was 14 nM and 8.7 nM. In addition, the “% Inh” value in assay [1] is 75% ± 11%.

For `O=C(C(Nc1ccccc1F)c1ccc(C(F)(F)F)cc1)N1CCC[C@H]1c1ccccc1F` (stereo partly drawn) [Cpd 150, 2-(2-Fluoro-phenylamino)-1-[(2S)-2-(2-fluoro-phenyl)-pyrrolidin-1-yl]-2-(4-trifluoromethyl-phenyl)-ethanone], on canine TRPM8 (canine TRPM8 HEK293, icilin), the inhibition at 0.2 µM worked out at 89% and the inhibition at 0.5 µM was 100%. On canine TRPM8, the 50% inhibitory concentration (IC50) is 12 nM and 4 nM. The “% Inh” value in assay [1] is 63% ± 15%.
